Measurements taken from PubChem BioAssay (NCI).
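Method: 48-hour compound exposure of cells in 96-well plates, five concentrations, linear interpolation of endpoints. GI50 marks 50% less growth. Definition used: TGI = concentration required for complete inhibition of growth.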

How the values were obtained:
Test in all cases: NCI-60 cell line screen, 48 h
MDA-MB-231 breast = system: MDA-MB-231 breast
MALME-3M melanoma = system: MALME-3M melanoma
MOLT-4 leukemia = system: MOLT-4 leukemia
OVCAR-3 ovarian = system: OVCAR-3 ovarian
HOP-92 NSCLC = system: HOP-92 NSCLC
NCI/ADR-RES ovarian = system: NCI/ADR-RES ovarian
COLO 205 colon = system: COLO 205 colon
HS 578T breast = system: HS 578T breast
CAKI-1 renal = system: CAKI-1 renal
UACC-62 melanoma = system: UACC-62 melanoma
MDA-MB-435 = system: MDA-MB-435
SK-MEL-28 melanoma = system: SK-MEL-28 melanoma
OVCAR-4 ovarian = system: OVCAR-4 ovarian
ACHN renal = system: ACHN renal
NCI-H226 lung = system: NCI-H226 lung
NCI-H460 lung = system: NCI-H460 lung
BT-549 breast = system: BT-549 breast
SW-620 colon = system: SW-620 colon
CCRF-CEM leukemia = system: CCRF-CEM leukemia
RXF 393 renal = system: RXF 393 renal
SN12C renal = system: SN12C renal
HCT-15 colon = system: HCT-15 colon
HCC-2998 colon = system: HCC-2998 colon
LOX IMVI melanoma = system: LOX IMVI melanoma
SNB-19 CNS = system: SNB-19 CNS
HOP-62 NSCLC = system: HOP-62 NSCLC
OVCAR-8 ovarian = system: OVCAR-8 ovarian
TK-10 renal = system: TK-10 renal
SR leukemia = system: SR leukemia
HCT-116 colon = system: HCT-116 colon
SK-MEL-2 melanoma = system: SK-MEL-2 melanoma
MCF7 breast = system: MCF7 breast
U251 CNS = system: U251 CNS
HL-60(TB) leukemia = system: HL-60(TB) leukemia
NCI-H522 lung = system: NCI-H522 lung
IGROV1 ovarian = system: IGROV1 ovarian
UO-31 renal = system: UO-31 renal
KM12 colon = system: KM12 colon
T-47D breast = system: T-47D breast
PC-3 prostate = system: PC-3 prostate
A498 renal = system: A498 renal
SNB-75 CNS = system: SNB-75 CNS
SF-295 CNS = system: SF-295 CNS
K-562 leukemia = system: K-562 leukemia
SK-MEL-5 melanoma = system: SK-MEL-5 melanoma
EKVX NSCLC = system: EKVX NSCLC
NCI-H23 lung = system: NCI-H23 lung
RPMI-8226 leukemia = system: RPMI-8226 leukemia
SF-539 CNS = system: SF-539 CNS
SK-OV-3 ovarian = system: SK-OV-3 ovarian
786-0 renal = system: 786-0 renal
M14 melanoma = system: M14 melanoma
OVCAR-5 ovarian = system: OVCAR-5 ovarian
A549 NSCLC = system: A549 NSCLC
SF-268 CNS = system: SF-268 CNS
UACC-257 melanoma = system: UACC-257 melanoma
HT29 colon = system: HT29 colon
DU-145 prostate = system: DU-145 prostate

Q: With `C=C(C)[C@@H]1CC[C@]2(C)[C@H](CC[C@@H]3[C@@H]([C@@](C)(O)CCC=C(C)C)CC[C@]32C)[C@@]1(C)CCC(=O)O` as the compound, how does the GI50 (MDA-MB-231 breast) read?
A: 16.6 µM

Q: What about the TGI (MDA-MB-231 breast) of the same compound?
A: 33.1 µM

Q: What about the GI50 (MALME-3M melanoma) of the same compound?
A: 14.4 µM

Q: What about the TGI (MALME-3M melanoma) of the same compound?
A: 28.2 µM

Q: What about the GI50 (MOLT-4 leukemia) of the same compound?
A: 15.4 µM

Q: What about the TGI (MOLT-4 leukemia) of the same compound?
A: 52.7 µM

Q: What about the GI50 (OVCAR-3 ovarian) of the same compound?
A: 15.9 µM

Q: And the TGI (OVCAR-3 ovarian)?
A: 29.8 µM

Q: And the GI50 (HOP-92 NSCLC)?
A: 12.7 µM

Q: What about the TGI (HOP-92 NSCLC) of the same compound?
A: 27.2 µM

Q: What about the GI50 (NCI/ADR-RES ovarian) of the same compound?
A: 20.2 µM

Q: And the TGI (NCI/ADR-RES ovarian)?
A: 41.3 µM

Q: And the GI50 (COLO 205 colon)?
A: 17.7 µM

Q: What about the TGI (COLO 205 colon) of the same compound?
A: 35.6 µM

Q: And the GI50 (HS 578T breast)?
A: 24 µM

Q: What about the TGI (HS 578T breast) of the same compound?
A: 86.9 µM

Q: What about the GI50 (CAKI-1 renal) of the same compound?
A: 13.9 µM

Q: What about the TGI (CAKI-1 renal) of the same compound?
A: 27.7 µM

Q: And the GI50 (UACC-62 melanoma)?
A: 13.9 µM

Q: And the TGI (UACC-62 melanoma)?
A: 29.5 µM

Q: And the GI50 (MDA-MB-435)?
A: 17.9 µM

Q: What about the TGI (MDA-MB-435) of the same compound?
A: 38.6 µM

Q: What about the GI50 (SK-MEL-28 melanoma) of the same compound?
A: 16.3 µM

Q: What about the TGI (SK-MEL-28 melanoma) of the same compound?
A: 30.3 µM

Q: What about the GI50 (OVCAR-4 ovarian) of the same compound?
A: 16.3 µM

Q: What about the TGI (OVCAR-4 ovarian) of the same compound?
A: 39 µM

Q: What about the GI50 (ACHN renal) of the same compound?
A: 21.7 µM

Q: What about the TGI (ACHN renal) of the same compound?
A: 54.3 µM

Q: And the GI50 (NCI-H226 lung)?
A: 18.1 µM

Q: And the TGI (NCI-H226 lung)?
A: 37.3 µM

Q: What about the GI50 (NCI-H460 lung) of the same compound?
A: 31.9 µM

Q: And the TGI (NCI-H460 lung)?
A: > 100 µM

Q: What about the GI50 (BT-549 breast) of the same compound?
A: 16.8 µM

Q: And the TGI (BT-549 breast)?
A: 35.8 µM

Q: And the GI50 (SW-620 colon)?
A: 28.5 µM

Q: And the TGI (SW-620 colon)?
A: > 100 µM

Q: And the GI50 (CCRF-CEM leukemia)?
A: 18 µM

Q: And the TGI (CCRF-CEM leukemia)?
A: 48.2 µM

Q: And the GI50 (RXF 393 renal)?
A: 14.3 µM

Q: What about the TGI (RXF 393 renal) of the same compound?
A: 28.6 µM

Q: What about the GI50 (SN12C renal) of the same compound?
A: 17.2 µM

Q: What about the TGI (SN12C renal) of the same compound?
A: 40.5 µM

Q: What about the GI50 (HCT-15 colon) of the same compound?
A: 15.4 µM

Q: And the TGI (HCT-15 colon)?
A: 31 µM

Q: And the GI50 (HCC-2998 colon)?
A: 21.2 µM

Q: What about the TGI (HCC-2998 colon) of the same compound?
A: 37.8 µM

Q: What about the GI50 (LOX IMVI melanoma) of the same compound?
A: 17.9 µM

Q: And the TGI (LOX IMVI melanoma)?
A: 31.8 µM

Q: What about the GI50 (SNB-19 CNS) of the same compound?
A: 18.8 µM

Q: What about the TGI (SNB-19 CNS) of the same compound?
A: 34.9 µM

Q: What about the GI50 (HOP-62 NSCLC) of the same compound?
A: 18.6 µM

Q: What about the TGI (HOP-62 NSCLC) of the same compound?
A: 45.3 µM

Q: What about the GI50 (OVCAR-8 ovarian) of the same compound?
A: 19 µM

Q: And the TGI (OVCAR-8 ovarian)?
A: 43 µM

Q: And the GI50 (TK-10 renal)?
A: 40.6 µM

Q: And the TGI (TK-10 renal)?
A: > 100 µM

Q: What about the GI50 (SR leukemia) of the same compound?
A: 16.5 µM

Q: What about the TGI (SR leukemia) of the same compound?
A: 44.7 µM

Q: And the GI50 (HCT-116 colon)?
A: 15.4 µM

Q: And the TGI (HCT-116 colon)?
A: 29.8 µM

Q: What about the GI50 (SK-MEL-2 melanoma) of the same compound?
A: 17.6 µM

Q: And the TGI (SK-MEL-2 melanoma)?
A: 39 µM

Q: And the GI50 (MCF7 breast)?
A: 19.7 µM

Q: And the TGI (MCF7 breast)?
A: 49.3 µM

Q: And the GI50 (U251 CNS)?
A: 16.6 µM

Q: And the TGI (U251 CNS)?
A: 31.8 µM

Q: And the GI50 (HL-60(TB) leukemia)?
A: 20.6 µM

Q: And the TGI (HL-60(TB) leukemia)?
A: 54.5 µM

Q: What about the GI50 (NCI-H522 lung) of the same compound?
A: 20.3 µM

Q: What about the TGI (NCI-H522 lung) of the same compound?
A: 63.5 µM

Q: And the GI50 (IGROV1 ovarian)?
A: 18.7 µM

Q: What about the TGI (IGROV1 ovarian) of the same compound?
A: 38.4 µM

Q: And the GI50 (UO-31 renal)?
A: 15.7 µM

Q: And the TGI (UO-31 renal)?
A: 29.4 µM

Q: And the GI50 (KM12 colon)?
A: 16.3 µM

Q: What about the TGI (KM12 colon) of the same compound?
A: 32.4 µM

Q: What about the GI50 (T-47D breast) of the same compound?
A: 21.5 µM

Q: And the TGI (T-47D breast)?
A: > 100 µM

Q: And the GI50 (PC-3 prostate)?
A: 11.3 µM

Q: And the TGI (PC-3 prostate)?
A: 27.2 µM

Q: And the GI50 (A498 renal)?
A: 29.5 µM

Q: What about the TGI (A498 renal) of the same compound?
A: > 100 µM

Q: And the GI50 (SNB-75 CNS)?
A: 15.3 µM

Q: And the TGI (SNB-75 CNS)?
A: 34.8 µM

Q: And the GI50 (SF-295 CNS)?
A: 17.7 µM

Q: What about the TGI (SF-295 CNS) of the same compound?
A: 32.2 µM

Q: What about the GI50 (K-562 leukemia) of the same compound?
A: 18.5 µM

Q: What about the TGI (K-562 leukemia) of the same compound?
A: 90.5 µM

Q: What about the GI50 (SK-MEL-5 melanoma) of the same compound?
A: 15.2 µM

Q: What about the TGI (SK-MEL-5 melanoma) of the same compound?
A: 29 µM

Q: What about the GI50 (EKVX NSCLC) of the same compound?
A: 24.2 µM

Q: What about the TGI (EKVX NSCLC) of the same compound?
A: 59.6 µM

Q: And the GI50 (NCI-H23 lung)?
A: 18.1 µM

Q: And the TGI (NCI-H23 lung)?
A: 35.6 µM

Q: What about the GI50 (RPMI-8226 leukemia) of the same compound?
A: 12.2 µM

Q: What about the TGI (RPMI-8226 leukemia) of the same compound?
A: 38.2 µM

Q: And the GI50 (SF-539 CNS)?
A: 16 µM

Q: And the TGI (SF-539 CNS)?
A: 29.9 µM

Q: And the GI50 (SK-OV-3 ovarian)?
A: 32.9 µM

Q: What about the TGI (SK-OV-3 ovarian) of the same compound?
A: > 100 µM

Q: And the GI50 (786-0 renal)?
A: 18.7 µM

Q: What about the TGI (786-0 renal) of the same compound?
A: 36.7 µM

Q: What about the GI50 (M14 melanoma) of the same compound?
A: 16.4 µM

Q: And the TGI (M14 melanoma)?
A: 36.1 µM

Q: What about the GI50 (OVCAR-5 ovarian) of the same compound?
A: 17.6 µM

Q: And the TGI (OVCAR-5 ovarian)?
A: 34.2 µM

Q: What about the GI50 (A549 NSCLC) of the same compound?
A: 23.3 µM

Q: What about the TGI (A549 NSCLC) of the same compound?
A: 91.9 µM

Q: And the GI50 (SF-268 CNS)?
A: 16.1 µM

Q: What about the TGI (SF-268 CNS) of the same compound?
A: 32.8 µM

Q: What about the GI50 (UACC-257 melanoma) of the same compound?
A: 23.8 µM

Q: And the TGI (UACC-257 melanoma)?
A: 96.4 µM

Q: What about the GI50 (HT29 colon) of the same compound?
A: 24.1 µM

Q: And the TGI (HT29 colon)?
A: > 100 µM

Q: And the GI50 (DU-145 prostate)?
A: 16.7 µM

Q: What about the TGI (DU-145 prostate) of the same compound?
A: 32.4 µM
